Data taken from ChEMBL document CHEMBL1201862, “PubChem BioAssay data set” (2004).
Calls of active or inactive are those of the source.

What was measured:
[1] = cytotoxicity in HPDE-C7 cells, cell-based, fluorescence, HTS (AID 430); type: functional; conditions: Homo sapiens
[2] = cytotoxicity in KRAS-transformed pancreatic duct cells, primary screen, cell-based, fluorescence, HTS (AID 431); type: functional; conditions: Homo sapiens;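 further: cell line used: HPDE-C7K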
[3] = Dose-response inhibition of insulin secretion in a rat insulinoma line at 5 mM glucose (AID 1117331); type: functional, cell-based; conditions: INS-1E
Kallikrein-7 = Kallikrein-7 (Homo sapiens, UniProt P49862); experiment: Fluorescence Intensity-based biochemical primary high throughput dose response assay to identify activators of kallikrein-7 (K7) zymogen.
Sequence of Kallikrein-7 (P49862 whole entry): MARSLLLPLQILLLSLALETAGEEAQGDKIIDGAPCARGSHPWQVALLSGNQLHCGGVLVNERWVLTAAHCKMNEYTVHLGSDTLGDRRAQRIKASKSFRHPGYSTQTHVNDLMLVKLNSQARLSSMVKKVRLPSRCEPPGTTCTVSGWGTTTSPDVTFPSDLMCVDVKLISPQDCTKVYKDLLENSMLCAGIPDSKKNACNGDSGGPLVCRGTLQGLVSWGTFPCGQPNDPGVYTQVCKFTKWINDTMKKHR

[4] = target: T1, Sphingosine 1-phosphate receptor 2 (Homo sapiens, UniProt O95136); experiment: Dose Response Cell Based Assay for Agonists of the S1P2 Receptor. [Related pubchem assays: 729, 736, 843 ]; type: functional
T1 sequence (O95136 whole entry): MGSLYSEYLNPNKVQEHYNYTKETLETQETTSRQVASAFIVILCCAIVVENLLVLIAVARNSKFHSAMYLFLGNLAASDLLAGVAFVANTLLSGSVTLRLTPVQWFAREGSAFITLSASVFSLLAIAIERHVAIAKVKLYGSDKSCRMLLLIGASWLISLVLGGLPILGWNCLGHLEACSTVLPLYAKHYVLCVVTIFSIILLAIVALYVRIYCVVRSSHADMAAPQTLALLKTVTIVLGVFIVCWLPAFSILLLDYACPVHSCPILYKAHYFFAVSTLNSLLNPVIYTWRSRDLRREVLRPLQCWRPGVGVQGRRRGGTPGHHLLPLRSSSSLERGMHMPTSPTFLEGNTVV

[5] = target: Glutathione-S-transferase (Schistosoma japonicum, UniProt Q26513); experiment: biotin-GST/anti-GST TR-FRET signal inhibitors, dose response, artefact control for Vif-APOBEC3G degradation inhibitor project, biochemical (AID 1117362); type: functional
Sequence of Glutathione-S-transferase (Q26513 whole entry): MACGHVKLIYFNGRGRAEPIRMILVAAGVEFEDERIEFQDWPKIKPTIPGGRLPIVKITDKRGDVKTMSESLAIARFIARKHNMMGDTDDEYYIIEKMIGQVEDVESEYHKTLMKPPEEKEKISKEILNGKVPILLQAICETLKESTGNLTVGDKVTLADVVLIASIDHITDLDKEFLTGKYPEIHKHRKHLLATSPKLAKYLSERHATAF

[6] = target: Diphosphomevalonate decarboxylase (Streptococcus pneumoniae serotype 2 (strain D39 / NCTC 7466), UniProt Q9FD53); experiment: S. pneumoniae DPM-DC inhibition retest, confirmation, biochemical, cuvette format, coupled NADH fluorescence (AID 1028); type: functional
Sequence of Diphosphomevalonate decarboxylase (Q9FD53 whole entry): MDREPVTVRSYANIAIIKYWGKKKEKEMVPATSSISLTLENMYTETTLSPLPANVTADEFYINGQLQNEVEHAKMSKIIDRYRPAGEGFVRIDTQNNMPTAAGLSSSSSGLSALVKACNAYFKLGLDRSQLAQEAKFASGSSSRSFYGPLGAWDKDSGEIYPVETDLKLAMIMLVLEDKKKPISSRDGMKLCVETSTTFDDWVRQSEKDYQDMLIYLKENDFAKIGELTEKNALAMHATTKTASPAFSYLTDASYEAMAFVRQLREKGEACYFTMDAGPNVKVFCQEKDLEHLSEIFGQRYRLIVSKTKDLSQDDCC

[7] = target: RNA-editing ligase 1, mitochondrial (Trypanosoma brucei brucei, UniProt P86926); experiment: TbREL1 ligase inhibitors, dose response, biochemical, fluorescence, Trypanosoma brucei (AID 1117295); type: functional
Sequence of RNA-editing ligase 1, mitochondrial (P86926 whole entry): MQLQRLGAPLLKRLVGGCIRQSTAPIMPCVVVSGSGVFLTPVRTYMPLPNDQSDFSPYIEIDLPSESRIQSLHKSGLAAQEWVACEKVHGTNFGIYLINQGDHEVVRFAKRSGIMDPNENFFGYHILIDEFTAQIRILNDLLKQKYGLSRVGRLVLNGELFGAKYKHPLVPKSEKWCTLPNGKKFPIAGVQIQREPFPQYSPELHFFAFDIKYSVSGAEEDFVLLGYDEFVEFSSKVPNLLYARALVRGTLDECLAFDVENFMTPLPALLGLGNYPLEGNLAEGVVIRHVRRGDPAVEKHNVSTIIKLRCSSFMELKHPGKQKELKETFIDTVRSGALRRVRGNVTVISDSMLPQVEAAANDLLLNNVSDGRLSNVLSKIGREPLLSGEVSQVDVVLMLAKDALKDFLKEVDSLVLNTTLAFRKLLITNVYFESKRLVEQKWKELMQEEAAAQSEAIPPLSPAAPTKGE

[8] = target: 1-phosphatidylinositol 4,5-bisphosphate phosphodiesterase gamma-1 (Homo sapiens, UniProt P19174); experiment: Counterscreen for inhibitors of phospholipase C isozymes (PLC-B3): Fluorescence-based biochemical high throughput dose response assay to identify inhibitors of phospholipase C isozymes (PLC-gamma1).
Sequence of 1-phosphatidylinositol 4,5-bisphosphate phosphodiesterase gamma-1 (P19174 whole entry): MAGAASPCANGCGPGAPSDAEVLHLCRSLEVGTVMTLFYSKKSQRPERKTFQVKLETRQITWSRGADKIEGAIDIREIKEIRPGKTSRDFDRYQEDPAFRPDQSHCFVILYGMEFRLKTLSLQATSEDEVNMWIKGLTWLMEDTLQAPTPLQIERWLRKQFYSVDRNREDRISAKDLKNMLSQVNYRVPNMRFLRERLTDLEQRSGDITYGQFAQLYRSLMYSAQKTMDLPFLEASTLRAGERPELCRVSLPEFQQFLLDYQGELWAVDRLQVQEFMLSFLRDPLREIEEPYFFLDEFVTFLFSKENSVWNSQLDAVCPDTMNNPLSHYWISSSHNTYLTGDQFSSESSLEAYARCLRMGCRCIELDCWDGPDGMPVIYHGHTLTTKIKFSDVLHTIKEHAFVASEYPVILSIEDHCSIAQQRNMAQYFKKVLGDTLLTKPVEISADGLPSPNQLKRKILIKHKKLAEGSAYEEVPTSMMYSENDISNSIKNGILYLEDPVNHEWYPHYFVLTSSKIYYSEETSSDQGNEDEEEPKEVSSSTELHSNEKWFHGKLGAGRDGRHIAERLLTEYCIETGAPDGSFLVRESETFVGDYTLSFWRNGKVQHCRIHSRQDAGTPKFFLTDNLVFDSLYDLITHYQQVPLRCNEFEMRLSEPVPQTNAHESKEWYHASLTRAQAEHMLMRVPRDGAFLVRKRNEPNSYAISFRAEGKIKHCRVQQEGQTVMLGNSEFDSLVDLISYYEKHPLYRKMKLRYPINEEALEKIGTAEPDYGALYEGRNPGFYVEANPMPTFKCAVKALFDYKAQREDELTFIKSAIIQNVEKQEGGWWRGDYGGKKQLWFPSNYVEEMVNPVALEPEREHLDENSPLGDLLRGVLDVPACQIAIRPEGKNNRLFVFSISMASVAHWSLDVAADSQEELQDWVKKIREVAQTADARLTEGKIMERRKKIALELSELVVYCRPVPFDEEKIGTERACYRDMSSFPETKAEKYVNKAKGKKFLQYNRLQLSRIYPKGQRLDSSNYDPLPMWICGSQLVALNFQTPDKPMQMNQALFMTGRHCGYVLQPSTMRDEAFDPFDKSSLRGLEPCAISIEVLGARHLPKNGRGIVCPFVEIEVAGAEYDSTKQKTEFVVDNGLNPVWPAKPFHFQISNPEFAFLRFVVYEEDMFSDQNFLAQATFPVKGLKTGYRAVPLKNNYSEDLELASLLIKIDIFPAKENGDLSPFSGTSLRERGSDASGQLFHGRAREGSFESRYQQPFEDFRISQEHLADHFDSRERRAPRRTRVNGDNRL

[9] = target: 1-phosphatidylinositol 4,5-bisphosphate phosphodiesterase beta-3 (Homo sapiens, UniProt Q01970); experiment: Fluorescence-based biochemical high throughput dose response assay to identify inhibitors of phospholipase C isozymes (PLC-B3).
Sequence of 1-phosphatidylinositol 4,5-bisphosphate phosphodiesterase beta-3 (Q01970 whole entry): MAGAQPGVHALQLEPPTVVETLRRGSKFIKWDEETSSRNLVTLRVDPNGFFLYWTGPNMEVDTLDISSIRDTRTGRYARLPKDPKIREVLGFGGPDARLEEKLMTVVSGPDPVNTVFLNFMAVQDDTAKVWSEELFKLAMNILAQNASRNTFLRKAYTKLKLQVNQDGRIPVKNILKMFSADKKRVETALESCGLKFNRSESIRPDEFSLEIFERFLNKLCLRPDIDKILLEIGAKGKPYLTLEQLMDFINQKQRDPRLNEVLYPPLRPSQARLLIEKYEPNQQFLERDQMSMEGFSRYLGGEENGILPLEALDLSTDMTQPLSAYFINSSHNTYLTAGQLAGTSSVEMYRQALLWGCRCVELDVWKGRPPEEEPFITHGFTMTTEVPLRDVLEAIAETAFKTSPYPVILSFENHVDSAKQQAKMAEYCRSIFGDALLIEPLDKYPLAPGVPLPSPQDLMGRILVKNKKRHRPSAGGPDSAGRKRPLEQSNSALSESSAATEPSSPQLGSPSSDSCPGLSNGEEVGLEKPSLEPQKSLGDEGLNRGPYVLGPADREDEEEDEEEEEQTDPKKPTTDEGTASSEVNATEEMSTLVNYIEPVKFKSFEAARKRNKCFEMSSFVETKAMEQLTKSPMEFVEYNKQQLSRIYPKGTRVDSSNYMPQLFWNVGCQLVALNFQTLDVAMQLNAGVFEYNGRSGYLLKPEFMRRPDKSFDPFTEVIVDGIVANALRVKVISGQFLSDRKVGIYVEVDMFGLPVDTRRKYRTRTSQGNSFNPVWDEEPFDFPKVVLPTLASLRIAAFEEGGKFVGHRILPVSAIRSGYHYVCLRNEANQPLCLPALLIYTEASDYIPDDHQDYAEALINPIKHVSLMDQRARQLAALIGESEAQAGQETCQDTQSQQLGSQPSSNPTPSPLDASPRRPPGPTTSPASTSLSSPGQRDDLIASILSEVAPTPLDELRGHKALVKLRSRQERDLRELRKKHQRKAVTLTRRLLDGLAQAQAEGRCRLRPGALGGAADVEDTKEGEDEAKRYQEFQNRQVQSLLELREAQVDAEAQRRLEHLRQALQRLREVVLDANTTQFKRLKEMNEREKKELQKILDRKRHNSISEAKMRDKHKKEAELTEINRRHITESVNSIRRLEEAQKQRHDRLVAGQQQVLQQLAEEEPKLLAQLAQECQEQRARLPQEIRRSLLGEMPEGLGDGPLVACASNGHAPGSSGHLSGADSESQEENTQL

[10] = HepG2 cell cytotoxicity, dose response, cytotoxicity control, ATP luminescence, cherry-pick, set 6 (AID 1053125); type: functional, cell-based
cells [11] = conditions: A549
cells [12] = experiment: cells
cells [13] = conditions: HEK293
[14] = P. falciparum late gametocyte killing, dose response, luminescence (AID 1117278); type: functional, cell-based;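 further: gametocytes exposed to compound for 24 hours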
[15] = Jurkat T cell cytotoxicity, dose response, cytotoxicity control for P. falciparum gametocyte viability project, luminescence (AID 1117277); type: functional, cell-based;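 further: potency reflects loss of cellular ATP meaning fewer viable cells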
Paired box protein Pax-8 = Paired box protein Pax-8 (Homo sapiens, UniProt Q06710); experiment: inhibitors of PAX8-driven TPO luciferase reporter, dose response, RMG-I cells, cherry-pick (AID 687027); type: functional, cell-based;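 further: luciferase reporter driven by Pax8 target thyroperoxidase promoter measured by SteadyGlo luminescence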
Sequence of Paired box protein Pax-8 (Q06710 whole entry): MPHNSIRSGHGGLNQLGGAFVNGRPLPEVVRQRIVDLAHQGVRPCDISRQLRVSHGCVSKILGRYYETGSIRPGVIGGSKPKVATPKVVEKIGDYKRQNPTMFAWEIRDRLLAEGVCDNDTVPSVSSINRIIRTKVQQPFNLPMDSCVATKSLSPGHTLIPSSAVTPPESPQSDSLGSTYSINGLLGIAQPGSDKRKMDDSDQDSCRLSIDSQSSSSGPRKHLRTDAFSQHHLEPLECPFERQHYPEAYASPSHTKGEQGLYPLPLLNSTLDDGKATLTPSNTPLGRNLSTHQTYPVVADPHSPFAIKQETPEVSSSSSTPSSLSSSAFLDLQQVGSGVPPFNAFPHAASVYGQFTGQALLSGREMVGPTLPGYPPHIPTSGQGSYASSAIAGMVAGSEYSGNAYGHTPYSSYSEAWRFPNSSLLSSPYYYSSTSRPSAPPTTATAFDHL

[16] = cytotoxicity in OVCAR8 ovarian cancer cells, dose response, PAX8 project, cell-based, plate reader, dry powder samples (AID 743197); type: functional; conditions: OVCAR-8
[17] = cytotoxicity dependent on PAX8, dose response, cell-based, plate reader, dry powder (AID 743049); type: functional
[18] = target: T1, Sphingosine 1-phosphate receptor 2; experiment: Dose Response Cell Based Assay for Antagonists of the S1P2 Receptor. [Related pubchem assays: 856, 736 ]; type: functional
[19] = Mtb BioA inhibitors by displacement, dose response, biochemical, coupled fluorescence displacement, 20-point, dry powder (AID 743357); type: functional

With CN1C[C@H](CNC(=O)OCc2ccccc2)C[C@@H]2c3cccc4c3c(cn4C)C[C@H]21 [METERGOLINE] the EC50 [1] was > 20 µM (not active), the EC50 [2] was > 20 µM (not active) and the IC50 [3] was > 33.3 µM (inactive).
In the case of COc1ccc(OC)c(/C=N\NC(=O)c2c(C)nc3cc(C)ccn23)c1, the EC50 (Kallikrein-7) was > 69.6 µM (inactive).
For O=c1c(-c2nc3ccccc3s2)cccn1Cc1ccc(Cl)c(Cl)c1, the EC50 [4] was 2.18 µM (active).
For CC1CCCCN1Cc1ccc(N(C)C)cc1 (stereo unspecified), the IC50 [5] was > 100 µM (active).
In the case of O=C(c1ccc(-n2sc3ccccc3c2=O)cc1)N1CCOCC1, the IC50 [6] was 13.1 µM (active).
For CC(C)c1c(Cl)c(O)c(-c2ccccc2)c(=O)n1-c1ccc(F)cc1, the IC50 [7] was 61.6 µM (inactive).
In the case of O=C(O)CCCN1C(=O)/C(=C\c2ccco2)SC1=S, the IC50 [8] was > 123 µM (inactive) and the IC50 [9] was > 123 µM (inactive).
In the case of N=c1oc2cc(O)ccc2cc1C(=O)Nc1ccc(Cl)cc1, the AC50 [10] was > 52 µM (inactive), the AC50 (cells [11]) was > 52 µM (inactive) and the AC50 (cells [12]) was 1.95 µM (active). For the same compound, the AC50 (cells [13]) was > 52 µM (inactive).
In the case of Cc1ccccc1-c1nc(CN2CCCC(C(=O)NCCCN3CCOCC3)C2)c(C)o1 (stereo unspecified), the IC50 [14] was > 109 µM (inactive) and the IC50 [15] was > 83.3 µM (inactive).
For C[C@@H]1CN([C@H](C)CO)C(=O)CCCn2cc(nn2)CO[C@H]1CN(C)C(=O)Nc1ccc(-c2cccs2)cc1, the AC50 (Paired box protein Pax-8) was < 0.26 µM (active), the AC50 [16] was > 70 µM (inactive) and the AC50 [17] was 1.65 µM (active).
With O=C(O)c1sc2cc(C(F)(F)F)cnc2c1-c1ccccn1 the IC50 [18] was > 30 µM (not active).
With COc1ccc(C(=O)N2CCN(c3ccc(C(C)=O)cc3)CC2)cc1OC the AC50 [19] was 11.7 µM (active).
